Entries after “also recorded” stand apart in the source; their conditions may differ.
Legend:
[1] = tested on: SH-SY5Y neuroblastoma cell line expressing the APP Swedish K670N/M671L double mutation (APPSwe); test: Immunostaining of intracellular Aβ deposits in APPSwe SH-SY5Y cells; assay type: cell-based, human
Protocol: The SH-SY5Y neuroblastoma cell line expressing the APP Swedish K670N/M671L double mutation (APPSwe) was a kind gift of Prof. Cedazo-Minguez (Karolinska Institute, Sweden). Cells were grown in DMEM/F-12, supplemented with 10% fetal bovine serum (FBS, Gibco), GlutaMAX (100×, Gibco) and penicillin/streptomycin (1×, Gibco). Cells were selected in 4 μg/mL Geneticin® Selective Antibiotic (G418 Sulfate, Sigma) and grown for three generations before experiments with cells plated and passaged at 4×10^3 cells/ml and 60% confluence, respectively. Cells were cultured at 37° C. under a 5% CO2 atmosphere and tested for mycoplasma using Mycoprobe (#CUL001B, R&D systems) following the manufacturer's instructions. Cells were treated with 10 μg/mL dox, NR 1 or 3 mM, ISRIB 0.5 μM (Sigma), as indicated for 24 hours before cell harvesting or fixation. For the immunostaining, cells were fixed with 1× Formal-Fixx (Thermo Scientific) for 15 min. After 15 min permeabilization with 0.1% Triton X-100, cells were blocked in PBS supplemented with 5% fetal bovine serum for 1 hour and immunostained overnight, at 4° C., with the anti-β-Amyloid 1-42 (1:100, Millipore AB5078P). The secondary antibody was coupled to the Alexa-488 fluorochrome (Thermo Scientific), and nuclei were stained with DAPI (Invitrogen, D1306). After washing in PBS, cell slides were mounted with Dako mounting medium (Dako, S3023) and examined with a Zeiss LSM 700 confocal microscope (Carl Zeiss MicroImaging) equipped with a Plan-Apochromat 40×/1.3 NA oil immersion objective lens using a 488 nm laser. Laser power was set at the lowest intensity allowing clear visualization of the signal. Imaging settings were maintained with the same parameters for comparison between different experimental conditions.
The SH-SY5Y neuroblastoma cell line expresses the APP Swedish K670N/M671L double mutation (APPSwe) (Zheng et al., 2011) and accumulates intracellular Aβ amyloid aggregates. Cells were grown in DMEM/F-12, supplemented with 10% fetal bovine serum (FBS, Gibco), GlutaMAX (100×, Gibco) and penicillin/streptomycin (1×, Gibco). Cells were selected in 4 μg/mL Geneticin® Selective Antibiotic (G418 Sulfate, Sigma) and grown for three generations before experiments with cells plated and passaged at 4×10{right arrow over ( )}3 cells/ml and 60% confluence, respectively. Cells were cultured at 37° C. under a 5% CO2 atmosphere and tested for mycoplasma using Mycoprobe (#CUL001B, R&D systems), following the manufacturer's instructions. Myriocin was dissolved in DMSO.
Cells were treated with 10 uM Myriocin and Fumonisin B1 for 24 hours before harvesting or fixation (FIG. 3A). For immunostaining, cells were fixed with 1× Formal-Fixx (Thermo Scientific) for 15 min. […]

[2] = tested on: SH-SY5Y(APPSwe) cells; test: Western-blot and transcript analysis in SH-SY5Y(APPSwe) cells; assay type: cell-based, human; details: NR 1 mM
Protocol: Human: Total RNA was extracted using guanidine-isothiocyanate lysis (PureLink, Ambion, Waltham, Mass.) from cortex samples, and RNA integrity and concentration was verified using Bioanalysis (Agilent, Santa Clara, Calif.). Samples were randomized based on diagnostic group and assayed in triplicate on a real-time PCR cycler (ABI 7500, Applied Biosystems, Foster City) in 96-well optical plates. qPCR was performed using Taqman hydrolysis probe primer sets (Applied Biosystems) specific for the following human transcripts: HSPA9, HSPD1, YMEIL1, DNM1L, BECN1, SQSTM1, PARK2, COX5A, CYC1. A primer set specific for human GAPDH was used as a control housekeeping transcript. For the APPSwe-expressing SH-SY5Y cell line, total RNA was extracted […] using TriPure RNA isolation reagent, and expression of selected transcripts was analyzed using the LightCycler480 system (Roche) and LightCycler® 480 SYBR Green I Master reagent (Roche). The GAPDH gene was used as housekeeping reference. The ddCT method was employed to determine relative levels of each amplicon. […] The SH-SY5Y neuroblastoma cell line expressing the APP Swedish K670N/M671L double mutation (APPSwe) was a kind gift of Prof. Cedazo-Minguez (Karolinska Institute, Sweden). Cells were grown in DMEM/F-12, supplemented with 10% fetal bovine serum (FBS, Gibco), GlutaMAX (100×, Gibco) and penicillin/streptomycin (1×, Gibco). Cells were selected in 4 μg/mL Geneticin® Selective Antibiotic (G418 Sulfate, Sigma) and grown for three generations before experiments with cells plated and passaged at 4×10^3 cells/ml and 60% confluence, respectively. Cells were cultured at 37° C. under a 5% CO2 atmosphere and tested for mycoplasma using Mycoprobe (#CUL001B, R&D systems) following the manufacturer's instructions. Cells were treated with 10 μg/mL dox, NR 1 or 3 mM, ISRIB 0.5 μM (Sigma), as indicated for 24 hours before cell harvesting or fixation. For the immunostaining, cells were fixed with 1× Formal-Fixx (Thermo Scientific) for 15 min. […]

## NC(=O)c1ccc[n+]([C@@H]2O[C@H](CO)[C@@H](O)[C@H]2O)c1 [NR, Nicotinamide Riboside triflate]
[1]; 24 h, dox 10 μg/mL, NR 3 mM
  intracellular Aβ deposits (anti-β-Amyloid 1-42 immunodetection): remarkable reduction
[2]; 24 h, dox 10 μg/mL
  MSR transcript levels: increased
[2]; Western-blot
  oxidative phosphorylation (OXPHOS) protein levels: increases

## CCCCCCC(=O)CCCCCC/C=C/C[C@@H](O)[C@H](O)[C@@](N)(CO)C(=O)O [Myriocin, (E,2S,3R,4R)-2-amino-3,4-dihydroxy-2-(hydroxymethyl)-14-oxoicos-6-enoic acid]
[1]; 10 uM, 24 hours
  intracellular Aβ deposits: significantly reduced; also recorded: markedly reduced
